Measurements: US7176281B2 (priority 2003, dated 2007)
Where a SMILES comes first, the peptide text is derived from it.

Tests used:
[1] = test system: murine macrophage cell line J774; test: LPS- or TNF-induced PGE2 production in J774 macrophages; type: cell-based, mouse; settings: J774 cells, 20 h
Description: The murine macrophage cell line J774 (ATCC, USA) was cultured at 37° C. in humidified 5% CO2/95% air in Dulbecco's Modified Eagle's Medium (DMEM) containing 10% foetal bovine serum, 2 mM glutamine, 20 mM Hepes, 100 Ul/ml penicillin and 100 μg/ml streptomycin. After growing to confluence, the cells were dislodged by scrapping, plated in 12 culture wells at a density of 5×10^5 cells/ml per well, and allowed to adhere for 2 h. […] Culture medium supernatants were collected after centrifugation (10,000 g, 4° C., 15 min) and stored at −80° C. prior to measurement of PGE2, which was done according to the manufacturer's instructions (EIA kit-monoclonal, Cayman Chemical, USA).
FIGS. 13A and 13B show modulation of LPS- and TNF-stimulated PGE2 release. […] Supernatants were collected, and PGE2 release in the medium was determined by ELISA. Results are shown as the mean±SEM of 5 experiments performed in duplicate. **P<0.01 between inhibitor-treated and untreated cultures.

[2] = molecular target: T1, 100-kDa human recombinant cytosolic form of PLA2 (cPLA2) (Homo sapiens, UniProt P47712); test: PLA2 inhibition, E. coli membrane assay, cPLA2; type: biochemical; settings: inhibition
T1 sequence (P47712 1-749): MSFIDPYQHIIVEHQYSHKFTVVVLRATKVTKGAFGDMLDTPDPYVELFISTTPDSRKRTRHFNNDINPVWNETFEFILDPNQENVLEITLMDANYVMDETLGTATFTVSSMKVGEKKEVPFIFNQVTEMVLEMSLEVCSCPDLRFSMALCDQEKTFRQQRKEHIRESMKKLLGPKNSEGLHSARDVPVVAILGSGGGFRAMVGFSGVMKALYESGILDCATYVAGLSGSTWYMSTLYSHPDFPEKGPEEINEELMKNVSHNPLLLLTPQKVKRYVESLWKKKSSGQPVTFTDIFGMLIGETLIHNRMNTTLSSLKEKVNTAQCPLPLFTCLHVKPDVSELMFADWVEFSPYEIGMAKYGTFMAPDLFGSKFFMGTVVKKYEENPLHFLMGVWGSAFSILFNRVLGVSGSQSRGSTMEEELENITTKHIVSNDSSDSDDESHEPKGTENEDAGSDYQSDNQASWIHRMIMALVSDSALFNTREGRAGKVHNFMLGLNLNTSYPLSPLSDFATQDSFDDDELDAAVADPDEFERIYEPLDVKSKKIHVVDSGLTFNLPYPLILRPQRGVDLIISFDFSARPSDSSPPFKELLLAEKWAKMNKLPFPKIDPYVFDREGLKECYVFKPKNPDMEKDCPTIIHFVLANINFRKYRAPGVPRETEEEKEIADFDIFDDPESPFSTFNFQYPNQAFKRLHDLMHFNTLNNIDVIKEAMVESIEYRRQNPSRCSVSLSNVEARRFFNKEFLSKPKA

[3] = test system: Tg197 transgenic mice (chronic inflammatory polyarthritis); test: Tg197 transgenic mouse arthritis model, experiment 2 (4 weeks, time course); type: in vivo
Description: In experiment 2, mice were divided into 6 groups (A–F), and were injected i.p with 3 weekly doses (150 μg peptide in 50 μL DMSO per dose) of either the test peptide P-NT.II or the control peptide with the scrambled sequence for 4 consecutive weeks. Tg197 mice in Group B (n=18) were further divided into 4 sub-groups (B1, B2, B3, B4). At the end of 1st week, four Tg197 mice from Group B (sub-group B1) were sacrificed and both hind legs taken for histological processing and scorings. The remaining Tg197 mice from the other sub-groups B were continued with 3 regular doses of injections per week, and four Tg197 mice from each sub-group B2 and B3, were sacrificed at the end of 2nd and 3rd weeks, respectively. At the end of 4th week, all remaining Tg197 mice ([…]) were sacrificed for collection of joint specimens.
Disease monitoring was done by gross observations based on body weight measurements and arthritis scoring, which were done twice weekly after treatment until all the animals were sacrificed at 5th week in experiment 1, or at 4th week in experiment 2. Arthritis score (AS) was recorded on both ankle joints, and average scores as shown below were taken: • 0=no arthritis (normal appearance and flexion); • 0.5=onset of arthritis (mild joint swelling); • 1.0=mild arthritis (joint distortion); • 1.5=as above+finger deformation, less strength on flexion; • […]=moderate arthritis (severe swelling, joint deformation, no strength on flexion); • 2.5=as above+finger deformation in paws; • 3.0=heavy arthritis (ankylosis detected on flexion and severely impaired movement).
For histopathological scoring, both hind legs were dissected and fixed in 10% formaldehyde overnight, decalcified in citrate-buffered formic acid for 3 days at 4° C., and processed for light microscopy (LM). • Histopathological score (HS) was evaluated as follows: • 0=no detectable pathology, • 1=hyperplasia of the synovial membrane and presence of polymorphonuclear infiltrates • 2=pannus and fibrous tissue formation and focal subchondrial bone erosion • 3=articular cartilage destruction and bone erosion • 4=articular cartilage destruction and extensive bone erosion.
Transmission electron microscopy (TEM): Ankle joints dissected from the left hind leg of each mouse were split open longitudinally through the midline between the tibia and the talus, prefixed overnight with 2.5% glutaraldehyde in phosphate buffer, pH 7.4 (PB) and rinsed with PB. After fixing with 1% osmium tetroxide in PB for 2 h, they were dehydrated in a graded series of ethanol and processed into Araldite. Semi-thin sections (1.0μ) were cut and stained with methylene blue to observe the orientation and for histopathological scorings under the light microscope. Ultra-thin sections (80–90 nm) were then cut with an ultramicrotome (Riechert-Jung Ultracut E), mounted on copper grids, counterstained with uranyl acetate and lead citrate, and evaluated under electron microscope (CM120 Biotwin, FEI Company).
Anti-inflammatory activity of the candidate peptide P-NT.II was examined as a new treatment option for modulating rheumatoid arthritis (RA) in a transgenic animal model. To evaluate the potential effectiveness of the peptide as prophylaxis against RA, two separate experiments were performed in 4 week-old transgenic (Tg197) mice and non-transgenic wild-type (wt) mice. These transgenic mice (Tg197) express human tumor necrosis factor (TNFα), a cytokine which has been implicated in the pathogenesis of human RA.

## CC[C@H](C)[C@H](NC(=O)[C@H](Cc1ccc(O)cc1)NC(=O)[C@@H](NC(=O)CNC(=O)[C@H](CC(=O)O)NC(=O)[C@H](Cc1c[nH]c2ccccc12)NC(=O)[C@@H](NC(=O)[C@H](Cc1c[nH]cn1)NC(=O)[C@@H](NC(=O)[C@H](CC(=O)O)NC(=O)[C@@H](NC(=O)[C@H](CCCNC(=N)N)NC(=O)CNC(=O)[C@@H](N)CC(C)C)C(C)C)[C@@H](C)CC)C(C)C)C(C)C)C(=O)N[C@@H](CCCNC(=N)N)C(=O)NCC(=O)N[C@@H](CCCNC(=N)N)C(=O)O [P-NT.II] (H-LGRVDIHVWDGVYIRGR-OH; N-terminus and C-terminus assumed)
[1]
  LPS- or TNF-induced PGE2 production: dose-dependently inhibit
[2]
  selectivity for sPLA2 over cPLA2: five-fold
[3]; 1 wk treatment
  % of total at indicated HS scores, HS 2: 100%
  % of total at indicated HS scores, HS 3: 0%
  % of total at indicated HS scores, HS 4: 0%
  Mean HS ± SEM: 2.12 ± 0.12
[3]; 1–4 weeks
  HS compared to untreated or scrambled peptide treated group: significantly reduced HS
[3]; 1–4 weeks post-treatment
  ultrastructural features of the articular chondrocytes (TEM): did not significantly differ from those seen in the joints of normal wildtype mice
[3]; 2 wk treatment
  % of total at indicated HS scores, HS 2: 100%
  % of total at indicated HS scores, HS 3: 0%
  % of total at indicated HS scores, HS 4: 0%
  Mean HS ± SEM: 2.37 ± 0.12
[3]; 3 wk treatment
  % of total at indicated HS scores, HS 2: 75%
  % of total at indicated HS scores, HS 3: 25%
  % of total at indicated HS scores, HS 4: 0%
  Mean HS ± SEM: 2.50 ± 0.20
[3]; 4 weeks post-treatment, n=4/group
  HS of synovitis, cartilage degradation and bone erosion: protective effect
[3]; 4 wk treatment
  % of total at indicated HS scores, HS 2: 75%
  % of total at indicated HS scores, HS 3: 25%
  % of total at indicated HS scores, HS 4: 0%
  Mean HS ± SEM: 2.62 ± 0.31
[3]; as early as 1 week after initiation of treatment
  number of inflammatory cells in the synovium: reduced
[3]; first two weeks after peptide treatment
  joints either normal or only mildly affected by arthritis: 100%
[3]; histopathologic analysis of joints
  chondrocyte necrobiosis as well as bone erosions: significantly reduced
[3]; last two weeks after peptide treatment
  joints either normal or only mildly affected by arthritis: 75%
